These are literature values, as cited in patent US20240139231A1, “METFORMIN COMPOSITIONS AND METHODS FOR TREATMENT OF DIABETES” (priority 2018, published 2024).

The structures appear in SMILES notation.

Setting [1] is: 500 mg/day co-administered with metformin, 12 weeks.

In the case of `O=C1O[C@H]([C@@H](O)CO)C(O)=C1O` [ascorbic acid], in the data set with type 2 diabetes mellitus (setting [1]), the “reduction of blood sugar levels, HbA1c measure, relative to metformin in combination with a placebo” value is 1.5%; the “reduction of blood sugar levels, fasting measure, relative to metformin in combination with a placebo” value is 7%; the “reduction of blood sugar levels, post-prandial measure, relative to metformin in combination with a placebo” value is recorded as “ca. 3%”. Moreover, the “effect on blood sugar when co-administered in lower amounts” value in the data set with type 2 diabetes mellitus (lower amounts, earlier reports by others) is recorded as “no effect”.

For `CN(C)C(=N)NC(=N)N` [metformin, Metformin], in the data set with blood glucose levels (depending on the dose), the “time to maximum effect” value is “within four to five days”. For the same molecule, in the data set on blood glucose levels (in vivo), the “low threshold dose at which effects on blood glucose levels become significant” value was 1,500 mg/day and the “time until effects begin to appear after the user starts taking the medication” value was ≤ 48 h.
